Data taken from ChEMBL document CHEMBL1268972, “Solid-phase synthesis and screening of N-acylated polyamine (NAPA) combinatorial libraries for protein binding” (Bioorg Med Chem Lett, 2010).

Test: Binding to HIV1 Vpr by isothermal titration calorimetry
Design: species or system Human immunodeficiency virus

Kd: 25 µM
Compound: C[C@H](CC(N)=O)N(C[C@@H](CCCCN)N(C[C@@H](CCCCN)N(C[C@@H](Cc1ccc(O)cc1)NC(=O)Cc1ccc([N+](=O)[O-])cc1)C(=O)CCc1ccccc1)C(=O)CCc1ccccc1)C(=O)CCc1ccccc1
